Data published in PubChem BioAssay AID2060888 (Molecular Pharmacology Branch, DTP, NCI, 2025).

Tested on: 695427-040-R-J1-PDC complex spheroid viability
Assay: Anticancer human tumor 695427-040-R-J1-PDC patient-derived colon adenocarcinoma cell line growth inhibition [RAS]
Conditions: for IC50: curve of first compound; for viability, T/C: stronger effect = lower value
Method in brief: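 Multi-cell-type spheroids: tumor cells plus HUVEC endothelial cells and mesenchymal stem cells. RAS-pathway inhibitors were combined with targeted agents, each dosed in half-log steps down from clinical Cmax, or from 10 microM when Cmax was unknown.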

[1] = second compound 0.000949 µM, first compound 0.0316 µM
[2] = second compound 0.000949 µM, first compound 0.1 µM
[3] = second compound 0.000949 µM, first compound 0.316 µM
[4] = second compound 0.000949 µM, first compound 1 µM
[5] = second compound 0.000949 µM, first compound 3.16 µM
[6] = second compound 0.000949 µM, first compound 10 µM
[7] = second compound 0.003 µM, first compound 0.0316 µM
[8] = second compound 0.003 µM, first compound 0.1 µM
[9] = second compound 0.003 µM, first compound 0.316 µM
[10] = second compound 0.003 µM, first compound 1 µM
[11] = second compound 0.003 µM, first compound 3.16 µM
[12] = second compound 0.003 µM, first compound 10 µM
[13] = second compound 0.00949 µM, first compound 0.0316 µM
[14] = second compound 0.00949 µM, first compound 0.1 µM
[15] = second compound 0.00949 µM, first compound 0.316 µM
[16] = second compound 0.00949 µM, first compound 1 µM
[17] = second compound 0.00949 µM, first compound 3.16 µM
[18] = second compound 0.00949 µM, first compound 10 µM
[19] = second compound 0.03 µM, first compound 0.0316 µM
[20] = second compound 0.03 µM, first compound 0.1 µM
[21] = second compound 0.03 µM, first compound 0.316 µM
[22] = second compound 0.03 µM, first compound 1 µM
[23] = second compound 0.03 µM, first compound 3.16 µM
[24] = second compound 0.03 µM, first compound 10 µM
[25] = second compound 0.0949 µM, first compound 0.0316 µM
[26] = second compound 0.0949 µM, first compound 0.1 µM
[27] = second compound 0.0949 µM, first compound 0.316 µM
[28] = second compound 0.0949 µM, first compound 1 µM
[29] = second compound 0.0949 µM, first compound 3.16 µM
[30] = second compound 0.0949 µM, first compound 10 µM
[31] = second compound 0.3 µM, first compound 0.0316 µM
[32] = second compound 0.3 µM, first compound 0.1 µM
[33] = second compound 0.3 µM, first compound 0.316 µM
[34] = second compound 0.3 µM, first compound 1 µM
[35] = second compound 0.3 µM, first compound 3.16 µM
[36] = second compound 0.3 µM, first compound 10 µM
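Also: viability read after seven days of drug exposure.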
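For viability, T/C in this document: 100% = DMSO vehicle control viability.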

Cc1nc(N2CCC3(CC2)COC(C)C3N)c(CO)nc1Sc1ccnc(N)c1Cl (stereo unspecified) + CCn1c(-c2cc(N3CCN(C)CC3)cnc2C(C)OC)c2c3cc(ccc31)-c1csc(n1)CC(NC(=O)C1CC1C)C(=O)N1CCCC(N1)C(=O)OCC(C)(C)C2
IC50 (second compound 0.000949 µM): 3420 nM
IC50 (second compound 0.003 µM): 1230 nM
IC50 (second compound 0.00949 µM): 613 nM
IC50 (second compound 0.03 µM): 117 nM
IC50 (second compound 0.0949 µM): < 31.6 nM
IC50 (second compound 0.3 µM): < 31.6 nM
viability, T/C [1]: 98.8%
viability, T/C [2]: 93.1%
viability, T/C [3]: 84.9%
viability, T/C [4]: 79.5%
viability, T/C [5]: 49.7%
viability, T/C [6]: 26.9%
viability, T/C [7]: 86.3%
viability, T/C [8]: 76.7%
viability, T/C [9]: 52.7%
viability, T/C [10]: 53.2%
viability, T/C [11]: 49.9%
viability, T/C [12]: 32.6%
viability, T/C [13]: 71%
viability, T/C [14]: 69.8%
viability, T/C [15]: 49.6%
viability, T/C [16]: 50.9%
viability, T/C [17]: 33.9%
viability, T/C [18]: 30.6%
viability, T/C [19]: 63.9%
viability, T/C [20]: 42.9%
viability, T/C [21]: 48.2%
viability, T/C [22]: 32.4%
viability, T/C [23]: 29.8%
viability, T/C [24]: 17.7%
viability, T/C [25]: 46.5%
viability, T/C [26]: 40.5%
viability, T/C [27]: 25.2%
viability, T/C [28]: 29.1%
viability, T/C [29]: 23%
viability, T/C [30]: 18.9%
viability, T/C [31]: 27.5%
viability, T/C [32]: 32.3%
viability, T/C [33]: 28.7%
viability, T/C [34]: 27.7%
viability, T/C [35]: 24.4%
viability, T/C [36]: 16%

NC1c2ccccc2OC12CCN(c1cnc3c(N4CCCc5ncccc54)n[nH]c3n1)CC2 (stereo unspecified) + CCn1c(-c2cc(N3CCN(C)CC3)cnc2C(C)OC)c2c3cc(ccc31)-c1csc(n1)CC(NC(=O)C1CC1C)C(=O)N1CCCC(N1)C(=O)OCC(C)(C)C2
IC50 (second compound 0.000949 µM): 375 nM
IC50 (second compound 0.003 µM): 209 nM
IC50 (second compound 0.00949 µM): 72 nM
IC50 (second compound 0.03 µM): < 31.6 nM
IC50 (second compound 0.0949 µM): < 31.6 nM
IC50 (second compound 0.3 µM): < 31.6 nM
viability, T/C [1]: 74.8%
viability, T/C [2]: 70.1%
viability, T/C [3]: 53.9%
viability, T/C [4]: 29.2%
viability, T/C [5]: 32.4%
viability, T/C [6]: 24.9%
viability, T/C [7]: 73.9%
viability, T/C [8]: 59.2%
viability, T/C [9]: 47%
viability, T/C [10]: 24.4%
viability, T/C [11]: 23.5%
viability, T/C [12]: 20.5%
viability, T/C [13]: 62.2%
viability, T/C [14]: 45.3%
viability, T/C [15]: 22.5%
viability, T/C [16]: 25.1%
viability, T/C [17]: 18.2%
viability, T/C [18]: 15.8%
viability, T/C [19]: 45.4%
viability, T/C [20]: 36%
viability, T/C [21]: 27.9%
viability, T/C [22]: 21.1%
viability, T/C [23]: 13.2%
viability, T/C [24]: 16.8%
viability, T/C [25]: 39.2%
viability, T/C [26]: 27.3%
viability, T/C [27]: 22.3%
viability, T/C [28]: 15.2%
viability, T/C [29]: 14.1%
viability, T/C [30]: 13.1%
viability, T/C [31]: 27.5%
viability, T/C [32]: 27%
viability, T/C [33]: 20.7%
viability, T/C [34]: 14.5%
viability, T/C [35]: 10.2%
viability, T/C [36]: 15.5%

Nc1ccn(C2OC(CO)C(O)C2(F)F)c(=O)n1 (stereo unspecified) + CCn1c(-c2cc(N3CCN(C)CC3)cnc2C(C)OC)c2c3cc(ccc31)-c1csc(n1)CC(NC(=O)C1CC1C)C(=O)N1CCCC(N1)C(=O)OCC(C)(C)C2
IC50 (second compound 0.000949 µM): > 1000 nM
IC50 (second compound 0.003 µM): 524 nM
IC50 (second compound 0.00949 µM): 593 nM
IC50 (second compound 0.03 µM): 112 nM
IC50 (second compound 0.0949 µM): < 3.16 nM
IC50 (second compound 0.3 µM): < 3.16 nM
viability, T/C (second compound 0.000949 µM, first compound 0.00316 µM): 69.9%
viability, T/C (second compound 0.000949 µM, first compound 0.01 µM): 97.5%
viability, T/C [1]: 81.8%
viability, T/C [2]: 69.3%
viability, T/C [3]: 67%
viability, T/C [4]: 54.2%
viability, T/C (second compound 0.003 µM, first compound 0.00316 µM): 109%
viability, T/C (second compound 0.003 µM, first compound 0.01 µM): 88.6%
viability, T/C [7]: 78.5%
viability, T/C [8]: 66.2%
viability, T/C [9]: 54.5%
viability, T/C [10]: 44.2%
viability, T/C (second compound 0.00949 µM, first compound 0.00316 µM): 80%
viability, T/C (second compound 0.00949 µM, first compound 0.01 µM): 77.7%
viability, T/C [13]: 60.9%
viability, T/C [14]: 58.5%
viability, T/C [15]: 57.5%
viability, T/C [16]: 45.3%
viability, T/C (second compound 0.03 µM, first compound 0.00316 µM): 56.4%
viability, T/C (second compound 0.03 µM, first compound 0.01 µM): 63.1%
viability, T/C [19]: 52.2%
viability, T/C [20]: 47.1%
viability, T/C [21]: 48.4%
viability, T/C [22]: 37.5%
viability, T/C (second compound 0.0949 µM, first compound 0.00316 µM): 42.4%
viability, T/C (second compound 0.0949 µM, first compound 0.01 µM): 47.1%
viability, T/C [25]: 40.6%
viability, T/C [26]: 36%
viability, T/C [27]: 25.7%
viability, T/C [28]: 30.1%
viability, T/C (second compound 0.3 µM, first compound 0.00316 µM): 34.5%
viability, T/C (second compound 0.3 µM, first compound 0.01 µM): 40.1%
viability, T/C [31]: 34.8%
viability, T/C [32]: 33.1%
viability, T/C [33]: 31.6%
viability, T/C [34]: 26.5%
